# From paper PMC12174726 (Chemmedchem, 2025)
# Entries after “also recorded” stand apart in the source; their conditions may differ. Where two headings read alike, the source gives them in different places. Residues, ends and D or L forms follow the SMILES beside them. *: point of attachment. Cbz = O=C(OCc1ccccc1)*
# What was measured:
# H3K27 acetylation = experiment: Western blot of H3K27ac levels in SU‐DHL‐10 cells; assay type: cell-based; conditions: 24 h
# neuroblastoma cell = test system: neuroblastoma cell; parameters: method as in PMID 34772733; conditions: cited from earlier work
# p300 [1] = target: T1, p300 (Homo sapiens, UniProt Q09472); experiment: Western blot of p300 levels in SU‐DHL‐10 cells; assay type: cell-based; parameters: WB analysis of p300 levels in the SU‐DHL‐10 cell line; endogenous in cells; host or cells: SU-DHL-10; conditions: for p300 protein levels (WB): SU‐DHL‐10, increasing concentrations
# T1 sequence (Q09472 whole entry): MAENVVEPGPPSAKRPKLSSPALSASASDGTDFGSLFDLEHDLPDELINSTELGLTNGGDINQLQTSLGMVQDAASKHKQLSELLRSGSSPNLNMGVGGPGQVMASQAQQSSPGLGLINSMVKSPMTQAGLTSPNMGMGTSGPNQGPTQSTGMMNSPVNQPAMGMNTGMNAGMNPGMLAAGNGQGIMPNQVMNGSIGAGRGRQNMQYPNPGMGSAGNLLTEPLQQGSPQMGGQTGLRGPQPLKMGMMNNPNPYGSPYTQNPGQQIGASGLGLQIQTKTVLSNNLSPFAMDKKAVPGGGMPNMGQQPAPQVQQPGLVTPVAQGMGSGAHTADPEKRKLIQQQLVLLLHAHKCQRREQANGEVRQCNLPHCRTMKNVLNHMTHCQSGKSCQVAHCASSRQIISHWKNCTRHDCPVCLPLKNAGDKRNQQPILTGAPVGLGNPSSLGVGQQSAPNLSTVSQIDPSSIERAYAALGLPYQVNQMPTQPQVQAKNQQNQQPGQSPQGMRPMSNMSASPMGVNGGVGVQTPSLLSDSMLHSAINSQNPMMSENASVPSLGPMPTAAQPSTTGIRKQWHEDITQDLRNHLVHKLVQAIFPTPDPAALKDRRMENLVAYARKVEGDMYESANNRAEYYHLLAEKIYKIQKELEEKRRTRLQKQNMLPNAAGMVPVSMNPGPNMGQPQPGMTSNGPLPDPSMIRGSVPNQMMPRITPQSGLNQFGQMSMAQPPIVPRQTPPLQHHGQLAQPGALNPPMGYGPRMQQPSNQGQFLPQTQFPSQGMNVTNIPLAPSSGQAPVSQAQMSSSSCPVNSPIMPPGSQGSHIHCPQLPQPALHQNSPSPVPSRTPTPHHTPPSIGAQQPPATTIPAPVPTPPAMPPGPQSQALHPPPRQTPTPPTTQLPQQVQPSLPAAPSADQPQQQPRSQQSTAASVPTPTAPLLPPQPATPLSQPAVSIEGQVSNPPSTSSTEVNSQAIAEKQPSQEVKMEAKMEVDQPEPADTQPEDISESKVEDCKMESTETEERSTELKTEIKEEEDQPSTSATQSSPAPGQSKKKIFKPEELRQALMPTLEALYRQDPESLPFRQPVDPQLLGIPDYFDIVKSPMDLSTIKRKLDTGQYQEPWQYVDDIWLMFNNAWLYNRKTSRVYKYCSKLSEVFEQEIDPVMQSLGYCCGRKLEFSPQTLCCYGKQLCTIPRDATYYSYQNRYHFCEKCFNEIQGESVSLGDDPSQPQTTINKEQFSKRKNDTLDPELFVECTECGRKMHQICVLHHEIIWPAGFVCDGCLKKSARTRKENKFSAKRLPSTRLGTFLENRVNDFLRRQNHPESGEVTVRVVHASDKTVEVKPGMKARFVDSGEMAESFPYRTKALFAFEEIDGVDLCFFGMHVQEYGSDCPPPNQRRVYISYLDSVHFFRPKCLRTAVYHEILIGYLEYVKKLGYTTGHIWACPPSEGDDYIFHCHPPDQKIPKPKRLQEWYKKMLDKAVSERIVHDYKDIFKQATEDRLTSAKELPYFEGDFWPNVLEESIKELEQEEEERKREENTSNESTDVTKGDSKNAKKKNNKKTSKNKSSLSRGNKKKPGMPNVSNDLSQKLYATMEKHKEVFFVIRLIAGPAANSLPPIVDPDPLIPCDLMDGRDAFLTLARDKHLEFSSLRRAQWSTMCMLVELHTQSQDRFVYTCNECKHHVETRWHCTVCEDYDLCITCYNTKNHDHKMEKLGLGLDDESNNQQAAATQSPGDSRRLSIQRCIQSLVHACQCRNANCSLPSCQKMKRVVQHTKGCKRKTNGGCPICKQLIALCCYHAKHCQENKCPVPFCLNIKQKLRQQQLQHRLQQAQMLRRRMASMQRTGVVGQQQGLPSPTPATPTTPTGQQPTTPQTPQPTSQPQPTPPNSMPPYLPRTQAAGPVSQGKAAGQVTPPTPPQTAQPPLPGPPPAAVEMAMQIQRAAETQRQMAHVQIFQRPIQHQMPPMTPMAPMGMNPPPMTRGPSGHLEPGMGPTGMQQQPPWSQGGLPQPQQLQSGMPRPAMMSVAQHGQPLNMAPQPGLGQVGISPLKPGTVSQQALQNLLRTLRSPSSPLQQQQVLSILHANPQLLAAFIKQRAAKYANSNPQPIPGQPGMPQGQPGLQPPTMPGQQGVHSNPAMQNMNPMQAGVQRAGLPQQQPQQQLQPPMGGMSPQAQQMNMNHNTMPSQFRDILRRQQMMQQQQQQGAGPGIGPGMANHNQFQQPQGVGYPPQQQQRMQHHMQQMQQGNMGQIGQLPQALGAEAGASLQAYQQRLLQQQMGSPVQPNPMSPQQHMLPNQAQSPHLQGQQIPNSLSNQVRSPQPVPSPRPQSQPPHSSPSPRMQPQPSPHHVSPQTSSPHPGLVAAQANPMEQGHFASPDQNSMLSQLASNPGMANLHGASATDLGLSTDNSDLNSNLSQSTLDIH
# Procedure: (§1) Following compound treatment for the indicated time frame (4 to 24 h), cells were solubilized, and the protein content was determined using the BCA protein assay (Pierce Chemical Co). Lysates were fractionated by SDS–polyacrylamide gel electrophoresis (SDS‐PAGE). Membranes were incubated with anti‐CBP (CBP (D6C5) Rabbit mAb #7389, Cell Signaling Technology), anti‐p300 (Anti‐KAT3B/p300 antibody (3G230), Abcam) or anti‐GAPDH (GAPDH Monoclonal Antibody (FF26A), Thermo Fisher Scientific) antibodies overnight. This was followed by incubation with the appropriate horseradish peroxidase‐conjugated anti‐mouse or anti‐rabbit secondary antibodies (Cytiva Europe) for 1 h. Enhanced chemiluminescence detection was then done following the manufacturer's instructions. GAPDH was used as a loading control. Images were quantified with the internal software of the Fusion Solo S (Vilber).
# CBP [2] = target: T2, CBP (Homo sapiens, UniProt Q92793); experiment: CBP catalytic activity inhibition; assay type: biochemical; conditions: means ± S.D., n = 3
# T2 sequence (Q92793 whole entry): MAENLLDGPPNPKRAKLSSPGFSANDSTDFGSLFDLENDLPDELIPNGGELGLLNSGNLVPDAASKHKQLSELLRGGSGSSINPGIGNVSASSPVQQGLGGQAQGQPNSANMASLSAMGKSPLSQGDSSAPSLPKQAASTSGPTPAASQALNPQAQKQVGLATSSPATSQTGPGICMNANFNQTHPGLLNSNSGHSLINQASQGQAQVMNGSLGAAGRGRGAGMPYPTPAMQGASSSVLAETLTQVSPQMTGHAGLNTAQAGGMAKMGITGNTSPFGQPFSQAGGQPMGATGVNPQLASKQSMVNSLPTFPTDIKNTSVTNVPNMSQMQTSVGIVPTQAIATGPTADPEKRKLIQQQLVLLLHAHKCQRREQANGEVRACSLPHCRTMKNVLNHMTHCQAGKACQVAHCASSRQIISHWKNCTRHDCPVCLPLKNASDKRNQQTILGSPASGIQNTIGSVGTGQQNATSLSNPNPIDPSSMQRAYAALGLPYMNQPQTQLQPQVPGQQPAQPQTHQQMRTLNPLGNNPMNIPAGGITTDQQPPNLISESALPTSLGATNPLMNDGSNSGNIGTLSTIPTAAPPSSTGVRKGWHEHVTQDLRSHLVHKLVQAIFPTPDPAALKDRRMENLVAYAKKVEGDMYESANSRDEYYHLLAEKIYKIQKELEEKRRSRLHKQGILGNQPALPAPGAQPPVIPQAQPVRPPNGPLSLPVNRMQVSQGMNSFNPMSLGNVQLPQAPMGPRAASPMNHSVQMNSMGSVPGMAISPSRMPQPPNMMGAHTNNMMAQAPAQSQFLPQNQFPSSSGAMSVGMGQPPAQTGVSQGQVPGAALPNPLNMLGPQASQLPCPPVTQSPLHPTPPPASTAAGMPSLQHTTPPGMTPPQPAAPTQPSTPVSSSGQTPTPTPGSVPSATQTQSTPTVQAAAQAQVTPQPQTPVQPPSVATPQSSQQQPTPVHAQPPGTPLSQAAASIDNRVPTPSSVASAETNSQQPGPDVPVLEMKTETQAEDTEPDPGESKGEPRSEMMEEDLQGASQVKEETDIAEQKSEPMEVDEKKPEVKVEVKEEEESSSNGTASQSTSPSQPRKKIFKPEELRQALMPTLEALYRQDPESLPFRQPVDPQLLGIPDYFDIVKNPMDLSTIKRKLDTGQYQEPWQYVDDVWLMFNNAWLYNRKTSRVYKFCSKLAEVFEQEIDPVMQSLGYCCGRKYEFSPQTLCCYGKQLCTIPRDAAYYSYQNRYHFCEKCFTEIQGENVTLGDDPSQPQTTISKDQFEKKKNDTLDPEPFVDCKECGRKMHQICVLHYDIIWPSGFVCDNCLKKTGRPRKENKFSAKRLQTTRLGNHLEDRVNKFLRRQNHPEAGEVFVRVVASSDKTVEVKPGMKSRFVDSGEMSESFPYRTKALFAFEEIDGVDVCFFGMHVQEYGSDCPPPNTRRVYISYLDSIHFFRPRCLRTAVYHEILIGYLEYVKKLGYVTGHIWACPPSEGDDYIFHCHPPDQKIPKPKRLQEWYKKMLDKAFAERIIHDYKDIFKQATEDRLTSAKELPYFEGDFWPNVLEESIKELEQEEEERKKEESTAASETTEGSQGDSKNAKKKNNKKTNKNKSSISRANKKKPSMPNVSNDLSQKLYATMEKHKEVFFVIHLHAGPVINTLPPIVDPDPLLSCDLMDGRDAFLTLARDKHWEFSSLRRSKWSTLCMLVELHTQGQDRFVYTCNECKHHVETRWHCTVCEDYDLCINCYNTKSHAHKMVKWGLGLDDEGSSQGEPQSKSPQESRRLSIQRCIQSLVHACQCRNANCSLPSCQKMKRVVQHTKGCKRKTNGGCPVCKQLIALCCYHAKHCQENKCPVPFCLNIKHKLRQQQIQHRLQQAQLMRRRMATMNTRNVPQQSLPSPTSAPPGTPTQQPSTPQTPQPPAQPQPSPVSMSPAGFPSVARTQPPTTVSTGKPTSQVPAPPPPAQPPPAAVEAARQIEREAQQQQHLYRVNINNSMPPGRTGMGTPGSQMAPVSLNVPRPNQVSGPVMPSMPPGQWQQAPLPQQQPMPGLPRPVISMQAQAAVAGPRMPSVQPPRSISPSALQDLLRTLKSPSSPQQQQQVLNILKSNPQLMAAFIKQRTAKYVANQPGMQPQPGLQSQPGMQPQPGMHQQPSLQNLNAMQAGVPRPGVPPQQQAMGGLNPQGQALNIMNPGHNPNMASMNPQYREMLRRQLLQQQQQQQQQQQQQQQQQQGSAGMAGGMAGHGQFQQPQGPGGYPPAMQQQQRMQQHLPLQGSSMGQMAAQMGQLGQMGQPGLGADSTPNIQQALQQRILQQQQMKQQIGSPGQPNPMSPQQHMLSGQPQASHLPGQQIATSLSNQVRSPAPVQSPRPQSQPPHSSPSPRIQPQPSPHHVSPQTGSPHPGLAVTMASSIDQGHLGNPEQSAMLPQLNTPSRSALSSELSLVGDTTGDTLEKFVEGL
# Source text: (§2) To answer this question, we initially characterized them both for their inhibition of CBP and p300 catalytic activities.
# p300 [3] = target: T1, p300; experiment: p300 catalytic activity inhibition; assay type: biochemical; conditions: means ± S.D., n = 3
# Source text: as §2
# SU‐DHL‐10 cells = experiment: MTT proliferation assay, SU‐DHL‐10; assay type: cell-based; conditions: for IC50: Homo sapiens, n = 2, read-out: IC50 (cell proliferation)
# Procedure: (§3) Lymphoma cell lines were exposed to a large range of concentrations of each compound as single agent for 24 h or 72 h, followed by MTT and after 4 h SDS to stop the reaction. The day after, plates were read using a Cytation 3 plate reader (Biotek) and IC50s were calculated. DMSO was used as a control (untreated). IC50 is defined as the drug concentration giving 50% of proliferating cells compared to vehicle treated cells. IC50 was calculated by fitting the values via nonlinear regression (GraphPad Prism 8.0). Values represent mean ± S.D.
# SU‐DHL‐2 = experiment: MTT proliferation assay, SU‐DHL‐2; assay type: cell-based; conditions: Homo sapiens, SU‐DHL‐2, 72 h treatment, n = 2, read-out: IC50 (cell proliferation)
# Procedure: as §3
# SU‐DHL‐16 = experiment: MTT proliferation assay, SU‐DHL‐16; assay type: cell-based; conditions: Homo sapiens, SU‐DHL‐16, 72 h treatment, n = 2, read-out: IC50 (cell proliferation)
# Procedure: as §3
# TMD8 = experiment: MTT proliferation assay, TMD8; assay type: cell-based; conditions: Homo sapiens, TMD8, 72 h treatment, n = 2, read-out: IC50 (cell proliferation)
# Procedure: as §3
# WSU‐DLCL2 = experiment: MTT proliferation assay, WSU‐DLCL2; assay type: cell-based; conditions: Homo sapiens, WSUDLCL2, WSU‐DLCL2, 72 h treatment, n = 2, read-out: IC50 (cell proliferation)
# Procedure: as §3
# [4] = test system: SU‐DHL‐2, SU‐DHL‐16, TMD8, and WSU‐DLCL2; experiment: MTT proliferation assay, additional DLBCL cell lines (summary); assay type: cell-based; conditions: 72 h, range over DLBCL cell lines and both compounds, read-out: viability IC50, range over cell lines
# Procedure: as §3
# CBP [5] = target: T2, CBP; experiment: Western blot of CBP levels in SU‐DHL‐10 cells; assay type: cell-based; parameters: WB analysis of CBP levels in the DLBCL SU‐DHL‐10 cell line; endogenous in cells; host or cells: SU-DHL-10
# Procedure: as §1
# [6] = test system: histone deacetylases (HDACs); parameters: method as in PMID 26718586; conditions: cited from earlier work
# [7] = SU-DHL10, SU‐DHL‐10, 24 h treatment
# [8] = SU-DHL10, SU‐DHL‐10, 72 h treatment
molecule,measurement,setting,value
JQAD1,H3K27 acetylation,"H3K27 acetylation; SU‐DHL‐10, 5 and 10 μM",reduced H3K27 acetylation in a dose‐dependent fashion
same,"IC50, neuroblastoma cell viability",neuroblastoma cell,nanomolar range
same,p300 protein levels (WB),p300 [1]; 24 h,slightly higher potency
"CC1=NN(c2ccc(C(=O)NCCCOCCOCCOCCCNC(=O)COc3cccc4c3C(=O)N(C3CCC(=O)NC3=O)C4=O)cc2)C(=O)/C1=C\c1ccc(-c2cc(C)c(C)cc2[N+](=O)[O-])o1 (centres unmarked) [Compound 1, (Z)‐4‐(4‐((5‐(4,5‐dimethyl‐2‐nitrophenyl)furan‐2‐yl)methylene)‐3‐methyl‐5‐oxo‐4,5‐dihydro‐1 H‐pyrazol‐1‐yl)‐N‐(1‐((2‐(2,6‐dioxopiperidin‐3‐yl)‐1,3‐dioxoisoindolin‐4‐yl)oxy)‐2‐oxo‐7,10,13‐trioxa‐3‐azahexadecan‐16‐yl)benzamide]",IC50,CBP [2],0.6 to 0.9 µM
same,IC50,p300 [3],0.6 to 0.9 µM
same,H3K27 acetylation,"H3K27 acetylation; SU‐DHL‐10, 5 μM",decreased H3K27 acetylation
same,IC50,SU‐DHL‐10 cells; [7],3.44 ± 0.12 µM
same,IC50,SU‐DHL‐10 cells; [8],2.73 ± 0.072 µM
same,IC50,SU‐DHL‐2,2.05 ± 0.068 µM
same,IC50,SU‐DHL‐16,2.99 ± 0.19 µM
same,IC50,TMD8,1.95 ± 0.069 µM
same,IC50,WSU‐DLCL2,3.24 ± 0.28 µM
same,IC50,[4],2 to 8 µM
same,p300 levels (WB),"p300 [1]; SU‐DHL‐10, 2.5 μM, 8 h",decreased protein levels
same,p300 levels (WB),"p300 [1]; SU‐DHL‐10, 2.5 μM, 24 h",no difference was observed
same,p300 levels (WB),"p300 [1]; SU‐DHL‐10, 10 μM, 24 h",significantly reduced p300 levels
same,p300 protein levels (WB),p300 [1]; 24 h,dose‐dependent reduction
same,CBP levels (WB),"CBP [5]; SU‐DHL‐10, 2.5 μM, 8 h",reduced the levels of CBP; also recorded: decreased the levels of CBP
same,CBP levels (WB),"CBP [5]; SU‐DHL‐10, 2.5 μM, 24 h",returned to the initial levels
same,decrease of protein (CBP) levels,"CBP [5]; SU‐DHL‐10, 10 μM, 24 h",roughly 70%
same,"CBP levels (WB), combination with C646","CBP [5]; SU‐DHL‐10, 1 2.5 μM + C646 10 μM, 8 h",did not affect CBP levels
same,"CBP degradation (WB), co‐incubation with MG132","CBP [5]; SU‐DHL‐10, 1 2.5 μM + MG132 10 μM, 8 h",abolishes 1‐induced CBP degradation
same,CBP protein levels (WB),"CBP [5]; SU‐DHL‐10, increasing concentrations, 24 h",dose‐dependent reduction; also recorded: slightly better efficacy on CBP compared to the previously reported PROTAC JQAD1
"CNC(=O)Nc1ccc2c(c1)CC[C@@]21OC(=O)N(CC(=O)N(Cc2ccc(F)cc2)[C@@H](C)C(F)(F)F)C1=O [Compound A485, A‐485]",H3K27 acetylation,"H3K27 acetylation; SU‐DHL‐10, 5 and 10 μM",reduced H3K27 acetylation in a dose‐dependent fashion
"CC1=NN(c2ccc(C(=O)O)cc2)C(=O)/C1=C\c1ccc(-c2cc(C)c(C)cc2[N+](=O)[O-])o1 [Compound C646, C646, reference compound]",IC50,CBP [2],0.21 ± 0.01 µM
same,H3K27 acetylation,"H3K27 acetylation; SU‐DHL‐10, 5 and 10 μM",did not reduce acetylation
same,IC50,SU‐DHL‐10 cells; [7],12.2 ± 3.02 µM
same,inhibition of histone deacetylases (HDACs),[6],inhibit histone deacetylases (HDACs) at low micromolar concentrations
same,CBP levels (WB),"CBP [5]; SU‐DHL‐10, 10 μM, 8 h",no effect on CBP levels
"O=C1CCC(N2C(=O)c3ccccc3C2=O)C(=O)N1 (centres unmarked) [Thalidomide, thalidomide, reference compound]",IC50,SU‐DHL‐10 cells; [7],> 20 µM
same,effect on cell viability,"SU‐DHL‐10 cells; SU‐DHL‐10, 24 h, up to 20 μM",no significant effects on cell viability
"CC1=NN(c2ccc(C(=O)NCCOCCOCCNC(=O)COc3cccc4c3C(=O)N(C3CCC(=O)NC3=O)C4=O)cc2)C(=O)/C1=C\c1ccc(-c2cc(C)c(C)cc2[N+](=O)[O-])o1 (centres unmarked) [Compound 2, (Z)‐4‐(4‐((5‐(4,5‐dimethyl‐2‐nitrophenyl)furan‐2‐yl)methylene)‐3‐methyl‐5‐oxo‐4,5‐dihydro‐1 H‐pyrazol‐1‐yl)‐N‐(2‐(2‐(2‐(2‐((2‐(2,6‐dioxopiperidin‐3‐yl)‐1,3‐dioxoisoindolin‐4‐yl)oxy)acetamido)ethoxy)ethoxy)ethyl)benzamide]",IC50,CBP [2],0.6 to 0.9 µM
same,IC50,p300 [3],0.6 to 0.9 µM
same,IC50,SU‐DHL‐10 cells; [7],6.44 ± 0.81 µM
same,IC50,SU‐DHL‐10 cells; [8],6.34 ± 1.76 µM
same,IC50,SU‐DHL‐2,4.96 ± 0.33 µM
same,IC50,SU‐DHL‐16,8.02 ± 2.46 µM
same,IC50,TMD8,7.81 ± 3.04 µM
same,IC50,WSU‐DLCL2,5.23 ± 0.85 µM
same,IC50,[4],2 to 8 µM
same,p300 levels (WB),"p300 [1]; SU‐DHL‐10, 2.5 μM, 8 h",decreased protein levels
same,p300 levels (WB),"p300 [1]; SU‐DHL‐10, 2.5 μM, 24 h",no difference was observed
same,p300 levels (WB),"p300 [1]; SU‐DHL‐10, 10 μM, 24 h",significantly reduced p300 levels
same,CBP levels (WB),"CBP [5]; SU‐DHL‐10, 2.5 μM, 8 h",slightly less active
same,CBP levels (WB),"CBP [5]; SU‐DHL‐10, 2.5 μM, 24 h",returned to the initial levels
same,decrease of protein (CBP) levels,"CBP [5]; SU‐DHL‐10, 10 μM, 24 h",roughly 70%
"CC(C)C[C@@H](C=O)NC(=O)[C@H](CC(C)C)NC(=O)[C@H](CC(C)C)NC(=O)OCc1ccccc1 [MG132, reference compound] (Cbz-Leu-Leu-Leu-aldehyde)",IC50,SU‐DHL‐10 cells; [7],0.144 ± 0.002 µM
